# Like-named read-outs stand apart in the source and are kept apart here. Where a SMILES comes first, the peptide text is derived from it. Bridges are numbered along the chain shown (N, C = ends).
# Legend:
# human CaV1.2 (hCaV1.2) [1] = biological target: T1, human CaV1.2 (hCaV1.2) (Homo sapiens, UniProt Q13936); conditions: pH 7.4
# human NaV1.3 (hNaV1.3) = format: cell-based; conditions: 10 μM
# [2] = tested on: potassium channel currents in rat DRG neurons; format: cell-based; conditions: 10 μM
# [3] = tested on: sodium channel currents in rat DRG neurons; format: cell-based; conditions: 10 μM; n = 3
# ND7/23 cells = conditions: 48 h
# human CaV2.2 (hCaV2.2) = format: cell-based; conditions: 10 μM
# Kunming mice = conditions: mouse, in vivo
# human NaV1.7 (hNaV1.7) = format: cell-based; conditions: 10 μM
# hNaV1.8 = format: cell-based, human
# human CaV1.2 (hCaV1.2) [4] = biological target: T1, human CaV1.2 (hCaV1.2); assay: cell-based; conditions: HEK293, read-out: inhibition of hCaV1.2 currents
# [5] = tested on: calcium channel currents in rat DRG neurons; format: cell-based; conditions: 10 μM
# [6] = tested on: voltage-gated calcium channels; conditions: cited from earlier work
# calcium currents = conditions: cited from earlier work
# T1 sequence (Q13936 whole entry, looked up): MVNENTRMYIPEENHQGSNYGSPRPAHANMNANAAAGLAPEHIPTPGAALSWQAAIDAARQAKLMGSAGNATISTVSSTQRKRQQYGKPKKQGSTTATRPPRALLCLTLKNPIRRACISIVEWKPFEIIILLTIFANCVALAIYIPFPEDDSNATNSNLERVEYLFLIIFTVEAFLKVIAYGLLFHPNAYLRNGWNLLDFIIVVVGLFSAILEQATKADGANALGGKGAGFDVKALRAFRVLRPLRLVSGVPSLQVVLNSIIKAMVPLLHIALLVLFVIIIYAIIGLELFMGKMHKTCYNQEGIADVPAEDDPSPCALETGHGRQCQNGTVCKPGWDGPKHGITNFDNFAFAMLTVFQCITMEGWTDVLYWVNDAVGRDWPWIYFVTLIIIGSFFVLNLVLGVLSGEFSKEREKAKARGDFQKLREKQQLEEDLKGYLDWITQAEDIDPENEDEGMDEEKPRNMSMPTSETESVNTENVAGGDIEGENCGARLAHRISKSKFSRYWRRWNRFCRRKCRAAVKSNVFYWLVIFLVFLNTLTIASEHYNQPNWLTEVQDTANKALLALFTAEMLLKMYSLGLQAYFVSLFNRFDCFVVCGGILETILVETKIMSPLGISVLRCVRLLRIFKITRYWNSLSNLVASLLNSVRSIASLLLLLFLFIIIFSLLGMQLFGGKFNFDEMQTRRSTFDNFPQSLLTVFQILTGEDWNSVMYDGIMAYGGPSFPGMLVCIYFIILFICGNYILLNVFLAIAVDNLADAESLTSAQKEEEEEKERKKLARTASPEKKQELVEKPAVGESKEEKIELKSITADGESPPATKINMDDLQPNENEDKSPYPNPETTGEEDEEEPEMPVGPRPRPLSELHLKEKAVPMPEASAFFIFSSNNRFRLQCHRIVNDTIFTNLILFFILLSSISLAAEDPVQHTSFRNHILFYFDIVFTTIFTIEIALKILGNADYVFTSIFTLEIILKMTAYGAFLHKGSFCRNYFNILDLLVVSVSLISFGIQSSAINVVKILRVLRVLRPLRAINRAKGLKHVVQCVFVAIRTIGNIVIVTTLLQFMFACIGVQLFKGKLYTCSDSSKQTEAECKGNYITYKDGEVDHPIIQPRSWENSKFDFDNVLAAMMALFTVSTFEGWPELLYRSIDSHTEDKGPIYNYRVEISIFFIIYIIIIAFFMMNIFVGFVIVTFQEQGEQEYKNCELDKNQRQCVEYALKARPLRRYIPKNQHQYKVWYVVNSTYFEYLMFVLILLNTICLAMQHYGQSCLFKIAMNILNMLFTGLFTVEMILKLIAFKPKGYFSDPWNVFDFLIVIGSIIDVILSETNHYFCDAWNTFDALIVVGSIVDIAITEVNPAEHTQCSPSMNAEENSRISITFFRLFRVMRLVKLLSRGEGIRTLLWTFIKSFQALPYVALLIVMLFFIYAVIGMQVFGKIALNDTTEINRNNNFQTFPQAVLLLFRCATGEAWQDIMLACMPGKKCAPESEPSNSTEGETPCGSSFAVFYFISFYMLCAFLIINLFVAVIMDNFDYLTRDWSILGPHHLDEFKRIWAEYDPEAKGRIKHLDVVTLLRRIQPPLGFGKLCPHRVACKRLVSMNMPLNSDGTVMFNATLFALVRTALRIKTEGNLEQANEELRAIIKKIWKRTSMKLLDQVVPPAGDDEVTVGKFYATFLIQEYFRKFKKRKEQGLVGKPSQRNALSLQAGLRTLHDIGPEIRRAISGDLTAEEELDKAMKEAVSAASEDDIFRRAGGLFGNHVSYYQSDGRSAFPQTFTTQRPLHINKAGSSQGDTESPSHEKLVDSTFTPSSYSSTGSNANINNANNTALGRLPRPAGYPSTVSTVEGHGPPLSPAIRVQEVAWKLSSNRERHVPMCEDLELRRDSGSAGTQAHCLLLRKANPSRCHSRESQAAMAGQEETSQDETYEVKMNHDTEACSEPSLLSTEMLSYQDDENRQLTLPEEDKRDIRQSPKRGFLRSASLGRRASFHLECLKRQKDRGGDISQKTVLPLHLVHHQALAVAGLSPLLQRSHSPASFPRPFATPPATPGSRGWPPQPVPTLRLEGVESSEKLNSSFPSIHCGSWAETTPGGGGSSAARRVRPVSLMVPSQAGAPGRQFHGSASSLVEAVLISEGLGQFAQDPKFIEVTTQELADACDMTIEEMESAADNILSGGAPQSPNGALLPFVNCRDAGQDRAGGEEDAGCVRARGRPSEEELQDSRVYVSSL
compound,measurement,setting,value
"CC[C@H](C)[C@H](NC(=O)[C@@H]1CSSC[C@@H]2NC(=O)[C@H](Cc3ccc(O)cc3)NC(=O)[C@H]([C@@H](C)CC)NC(=O)[C@H](C(C)C)NC(=O)CNC(=O)[C@H](CC(C)C)NC(=O)[C@H](CC(C)C)NC(=O)[C@H](CO)NC(=O)[C@H](C)NC(=O)[C@@H]3CCCN3C(=O)[C@@H]3CSSC[C@H](NC(=O)[C@H]([C@@H](C)CC)NC(=O)[C@H](CC(C)C)NC(=O)CNC(=O)[C@H](CCC(=O)O)NC(=O)[C@H](CSSC[C@H](NC(=O)[C@@H](N)CC(=O)O)C(=O)N[C@@H](Cc4c[nH]cn4)C(=O)N[C@@H](CCC(=O)O)C(=O)N[C@@H](CCCNC(=N)N)C(=O)N[C@@H](Cc4c[nH]c5ccccc45)C(=O)N[C@@H](CC(=O)O)C(=O)N[C@@H](Cc4c[nH]c5ccccc45)C(=O)N3)NC2=O)C(=O)N[C@@H](Cc2ccccc2)C(=O)N[C@@H]([C@@H](C)CC)C(=O)N[C@@H](C)C(=O)N[C@@H](Cc2ccccc2)C(=O)N1)C(=O)O [Tx6.7] (H-DCHERWDWCPASLLGVIYCCEGLICFIAFCI-OH; disulfide 2-20, 9-25, 19-30)",IC50,human CaV1.2 (hCaV1.2) [1],9.63 ± 1.12 µM
same,effects on hNaV1.3 currents,human NaV1.3 (hNaV1.3),no obvious effects
same,inhibition of peak potassium currents,[2],22.33 ± 7.81%
same,inhibitory effects on the sodium currents in rat DRG neurons,[3],no inhibitory effects
same,"shift in the current-voltage relationship, sodium currents",[3],did not induce a shift in the current-voltage relationship
same,cytotoxicity against ND7/23 cells,ND7/23 cells,no significant cytotoxicity
same,Cell viability,ND7/23 cells; 0.01 μM,101.95%
same,Cell viability,ND7/23 cells; 0.1 μM,105.01%
same,Cell viability,ND7/23 cells; 1 μM,99.18%
same,Cell viability,ND7/23 cells; 10 μM,98.60%
same,Cell viability,ND7/23 cells; 100 μM,94.80%
same,Cell viability at all detected concentrations,ND7/23 cells; 100 μM,more than 94%
same,inhibition of hCaV2.2 currents,human CaV2.2 (hCaV2.2),24.67 ± 0.91%
same,pain threshold,Kunming mice,increased
same,pain threshold increment percentage (maximum),Kunming mice,98.91%
same,time of maximum analgesic effect,Kunming mice,2 h
same,effects on hNaV1.7 currents,human NaV1.7 (hNaV1.7),no obvious effects
same,inhibition of hNaV1.8 currents,hNaV1.8,7.30 ± 3.38%
same,inhibition at 10 µM,human CaV1.2 (hCaV1.2) [4],56.6 ± 3.2%
same,inhibition of peak calcium currents,[5],59.29 ± 2.34%
same,"shift in the current-voltage relationship, calcium currents",[5]; n = 3,did not induce a shift in the current-voltage relationship of calcium currents
Ziconotide,block of voltage-gated calcium channels (ω family),[6],blockers of voltage-gated calcium channels
same,analgesic effect compared with Tx6.7,Kunming mice,better analgesic effect than Tx6.7
same,inhibition of calcium currents (ω family conotoxins),calcium currents,inhibiting calcium currents

# — publication PMC10241523 (The Journal of Venomous Animals and Toxins Including …, 2023)
